From article PMC5021059 (Clinical, Cosmetic and Investigational Dermatology, 2016)

Target: T1, 5-α-reductase type I (Homo sapiens, UniProt P18405)
T1 sequence (P18405 1-259): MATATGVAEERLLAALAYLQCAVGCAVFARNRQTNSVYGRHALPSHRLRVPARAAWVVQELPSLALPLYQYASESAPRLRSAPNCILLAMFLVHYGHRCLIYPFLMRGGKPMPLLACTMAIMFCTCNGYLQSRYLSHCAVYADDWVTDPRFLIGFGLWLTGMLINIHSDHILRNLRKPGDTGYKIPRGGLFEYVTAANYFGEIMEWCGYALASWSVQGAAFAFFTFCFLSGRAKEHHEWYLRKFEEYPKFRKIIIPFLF
Format: biochemical

Row | IC50 | SMILES
1 | 6.5±0.33 and 6.8±0.1 μM | CCCCCCCCCCCCCCC[C@@H](O)[C@@H](N)CO (racemic) [sphinganine]
2 | 420 ± 20 nM | CC(C)(C)NC(=O)[C@H]1CC[C@H]2[C@@H]3CC[C@H]4NC(=O)C=C[C@]4(C)[C@H]3CC[C@]12C [finasteride]
